Consider 1 compound from patent US20250057821A1, “METHODS OF TREATING MYELOID MALIGNANCIES USING BCL-2 INHIBITOR” (BeiGene Switzerland GmbH, priority 2022, published 2025).

Series [1] has as its system patients with AML or MDS or MDS/MPN. In words: Clinical study: safety and tolerability of Compound A in combination with azacitidine. The series is classed as in vivo, human. Particulars: treatment of AML or MDS or MDS/MPN, as of 4 Feb. 2023, 97 patients. On the procedure: The clinical study was conducted to evaluate the combination of Compound A and azacitidine in patients with myeloid malignancies, including acute myeloid leukemia (AML) (either treatment-naïve [TN] unfit for intensive induction chemotherapy or relapsed/refractory [R/R]), myelodysplastic syndrome (MDS), or MDS/myeloproliferative neoplasm (MPN). Patients with AML who were treatment-naive unfit for intensive chemotherapy or who are relapsed/refractory were enrolled into the AML cohorts; and patients with myelodysplastic syndrome (MDS) or MDS/myeloproliferative neoplasm (MPN) who were treatment-naïve with high-risk disease or who were relapsed/refractory were enrolled into the MDS cohorts.
Part 1 AML (Dose Regimen Finding; N≈18 to 36, i.e., a minimum of 6 and a maximum of 12/cohort) studied the safety and tolerability of different dose regimens of Compound A in combination with a fixed dose of azacitidine at 75 mg/m^2 for 7 days. After 3 patients have completed the dose-limiting toxicities (DLT) window, the SMC reviewed all available data and considered the probability of DLT rate to be >20% and recommended whether or not to enroll additional patients (ie, up to 12). […]
All Part 1, Part 2, and Part 3 cohorts were assessed for DLTs. […]

For a further series, the system named is patients with AML. The series is described as follows: Clinical study: antileukemic activity of Compound A in combination with azacitidine in patients with AML. The class given is in vivo, human. Particulars: for CR / CR+CRh: 80 mg x 10 day cohort (n=17); for CR/CRh: in combination with azacitidine 75 mg/m2 x 7 days, data cutoff 5 Sep. 2022. On the procedure: The clinical study was conducted to evaluate the combination of Compound A and azacitidine in patients with myeloid malignancies, including acute myeloid leukemia (AML) (either treatment-naïve [TN] unfit for intensive induction chemotherapy or relapsed/refractory [R/R]), myelodysplastic syndrome (MDS), or MDS/myeloproliferative neoplasm (MPN). Patients with AML who were treatment-naive unfit for intensive chemotherapy or who are relapsed/refractory were enrolled into the AML cohorts; and patients with myelodysplastic syndrome (MDS) or MDS/myeloproliferative neoplasm (MPN) who were treatment-naïve with high-risk disease or who were relapsed/refractory were enrolled into the MDS cohorts. The AML cohorts enrolls patients with treatment-naive (TN) AML who are unfit for intensive chemotherapy and relapsed/refractory (R/R) AML. The treatment cycles are of 28 days for all AML cohorts, unless recommended otherwise by the Safety Monitoring Committee (SMC). Part 1 AML (Dose Regimen Finding; N≈18 to 36, i.e., a minimum of 6 and a maximum of 12/cohort) studied the safety and tolerability of different dose regimens of Compound A in combination with a fixed dose of azacitidine at 75 mg/m^2 for 7 days. After 3 patients have completed the dose-limiting toxicities (DLT) window, the SMC reviewed all available data and considered the probability of DLT rate to be >20% and recommended whether or not to enroll additional patients (ie, up to 12). If no additional patients were required, the SMC would recommend whether or not to open a subsequent dose regimen in Part 1 and whether to open the dose regimen for Part 2 expansion. […] The window to assess dose-limiting toxicity (DLT) is up to Day 28 for nonhematologic toxicities and Day 42 or initiation of Cycle 2 for hematologic toxicities. The AML Part 1 dose regimen finding cohorts are as follows: • A) Compound A 40 mg daily×10 days with azacitidine (Ramp-up dosing of Compound A: 5 mg, 10 mg, 20 mg, 40 mg) • B) Compound A 80 mg daily×10 days with azacitidine (Ramp-up dosing of Compound A: 10 mg, 20 mg, 40 mg, 80 mg) • C) Compound A 160 mg daily×10 days with azacitidine (Ramp-up dosing of Compound A: 20 mg, 40 mg, 80 mg, 160 mg) • D) Compound A 160 mg daily×28 days with azacitidine (Ramp-up dosing of Compound A: 20 mg, 40 mg, 80 mg, 160 mg) • E) Compound A 320 mg daily×21 days with azacitidine (Ramp-up dosing of Compound A: 40 mg, 80 mg, 160 mg, and 320 mg) • F) Compound A 320 mg daily×28 days with azacitidine (Ramp-up dosing of Compound A: 40 mg, 80 mg, 160 mg, and 320 mg) In all Part 1 AML cohorts and the Part 2 cohort receiving the 28-day dose regimen, the initial dose of azacitidine is given 1 day prior to administration of Compound A (designated as Day 0) to compare baseline PK samples of azacitidine monotherapy with azacitidine in combination with Compound A, which starts on Day 1. In the subsequent cycles and all remaining cohorts, azacitidine administration start on Day 1 concurrently with Compound A. Dosing schema in Part I AML is shown in FIG. 1. Part 2 AML (Safety Expansion; N≈60) treated up to the cohorts each consisting of approximately 10 patients with dose regimens as defined in Part 1 and recommended by the SMC to proceed to Part 2. Part 2 of the study determined safety and antileukemic activity in a larger number of patients with a longer follow-up at dose regimens that were declared tolerable with early signs of activity in Part 1. At a given time, more than one dose regimen may be approved for expansion in Part 2; however, only a single Part 2 AML cohort was to be offered to prospective participants. Patients were preferentially enrolled in any open Part 1 cohort, if applicable. Each Part 2 cohort would continue to enroll up to 10 patients; this would include any additional patients enrolled in Part 1 but not needed for the initial SMC safety review of that cohort. […]

[2] abbreviates: R/R patients, in combination with azacitidine.
The mark [3] stands for this setting: TN patients, in combination with azacitidine.

Consider `CC(C)c1ccccc1[C@@H]1CCCN1C1CC2(CCN(c3ccc(C(=O)NS(=O)(=O)c4ccc(NCC5CCC(C)(O)CC5)c([N+](=O)[O-])c4)c(Oc4cnc5[nH]ccc5c4)c3)CC2)C1` (stereo partly drawn) [Compound A, 2-((1H-pyrrolo[2,3-b]pyridin-5-yl)oxy)-N-((4-((((1r,4r)-4-hydroxy-4-methylcyclohexyl)methyl)amino)-3-nitrophenyl)sulfonyl)-4-(2-((S)-2-(2-isopropylphenyl)pyrrolidin-1-yl)-7-azaspiro[3.5]nonan-7-yl)benzamide], for which the safety analysis result in series [1] is “well-tolerated and safe”. Further, the results for the CR with patients with AML (setting [2]) and in the series on patients with AML (setting [3]) were 50% and 73%, respectively. The “CR+CRh” value is 67% in the series with patients with AML (setting [2]) and 73% in the series on patients with AML (setting [3]). Besides, the CR/CRh in the series on patients with AML (R/R AML patients, all dose cohorts) was found to be 50%; in the series on patients with AML (TN unfit AML patients, all dose cohorts (40, 80, 160 mg x 10 days, 160 mg x 28 days)), 65%. Moreover, the “CR+CRh in TN AML achieved by the end of cycle 1” value in the series on patients with AML (TN AML patients, responders by end of cycle 1 out of all CR+CRh responders, in combination with azacitidine) is recorded as 15 of 20.
